Measured values from US20130143804A1, “Islet Amyloid Polypeptide Toxic Oligomer is a Biomarker of Heart or Kidney Failure in Type-2 Diabetes Mellitus” (Trustees of the University of Pennsylvania, priority 2010, published 2013).
“Also recorded” adds a separate entry of the source.

Experiments:
rat cardiac myocytes = test: Ca2+ transients in isolated rat cardiac myocytes incubated with exogenous IAPP, field stimulation; assay type: cell-based
Experimental: FIG. 8 illustrates that exogenous IAPP oligomers increase Ca^2+ transient amplitude in isolated rat cardiac myocytes.(A) Representative experiments in a control (top panel) myocyte and a cell pre-incubated with 50 μM hIAPP (bottom panel). (B-C) Effect of rat (B) and human (C) IAPP on Ca^2+ transient amplitude. […] For each group, measurements were done on ≧6 myocytes from 3 different rats.
Rat cardiac myocytes were incubated with exogenous human (amyloidogenic) and rat (non-amyloidogenic) IAPP and measured Ca2+ transients produced by field-stimulation at various frequencies (FIG. 8A).
(§1) Oligomerization of Aβ peptides is associated with Alzheimer's disease, and Aβ and IAPP have the same molecular weight sizes and are about 40% identical at the amino acid level.

[1] = Oligomer formation controls, dot blot with A-11 oligomer-specific antibody; assay type: physicochemical; settings: 50 μM recombinant protein incubated at room temperature for 24 hours
Description: Dot blots with the A-11 antibody, which is specific for toxic oligomers, show the presence of toxic oligomers amyloidogenic entities within the heart in patients with overweight/obesity (OW/OB) and diabetes (DM) (FIG. 4). Non-failing (NF) hearts from lean (L), L-NF group (control), lack toxic oligomers. The percentage of strong A-11 immunoreactivity signals (darker dots) is somewhat larger in hearts from the patients with diabetes, which also correlates with the western blot analysis indicating rich accumulation of IAPP entities with molecular weights greater than ˜16 kDa in these hearts. Apparently, IAPP oligomers are equally present in both ischemic (ICM) and non-ischemic (DCM) hearts (FIG. 4). […] Dots on the upper, right side corner show positive (human IAPP) and negative (rat IAPP) controls for oligomer formation (50 μM recombinant protein incubated at room temperature for 24 hours) (FIG. 4). Before the test with A-11 antibody, all protein homogenate samples were incubated with Protein A-coated magnetic beads to extract IgG, a possible source of cross-reactivity.

[2] = tested on: sarcolemma of cardiac myocytes; test: Atomic force microscopy of sarcolemma defect depths on cardiac myocytes; assay type: cell-based; settings: cardiac myocytes incubated with IAPP oligomers
Description: FIG. 16 illustrates distribution of sarcolemma defect depths derived from AFM data.
as §1

[3] = tested on: isolated rat cardiac myocytes; test: Calcein leak from isolated rat cardiac myocytes incubated with IAPP oligomers; assay type: cell-based; settings: incubation for 36 hours
Description: (§2) The level of brain natriuretic peptide (BNP), a molecular marker of hypertrophy, is elevated (by 100±30%) in hearts from pre-diabetic HIP rats vs. age-matched control littermates and further increased with diabetes development (FIG. 12B). […] In contrast, the BNP level is not altered in pre-diabetic UCD-T2DM rats and only increases after the full development of diabetes (FIG. 12B). […] This may indicate that possible pores created in the sarcolemma may be smaller in size than the calcein molecule or significant sarcolemmal damage may require a longer time of incubation.

[4] = tested on: sarcolemma in cardiac myocytes; test: Cryo-electron microscopy of cardiac myocytes incubated with IAPP oligomers; assay type: cell-based; settings: 50 μM IAPP oligomers for 36 hours
Experimental: FIG. 13 illustrates EM images of cardiac myocytes. Control (A-B) vs. incubated with 50 μM IAPP oligomers for 36 hours (C-H).
as §2

[5] = tested on: isolated rat cardiac myocytes; settings: external human IAPP; Bell et al. 1995; cited from earlier work
[6] = 50 μM IAPP, all stimulation frequencies

Substance	Ca2+ transient amplitude (rat cardiac myocytes; 5 μM IAPP, monomeric form)	Ca2+ transient amplitude (rat cardiac myocytes; [6])	oligomer formation (A-11 dot blot control) [1]	sarcolemma thinning (density of thin patches, AFM) [2]	calcein leak from the cytoplasm [3]	structural modification of the sarcolemma (EM) [4]	Ca2+ transient amplitude (rat cardiac myocytes; 50 μM IAPP, all stimulation frequencies, listed as Human IAPP)	hypertrophy induction [5]
rat IAPP: rat islet amyloid polypeptide, non-amyloidogenic, SEQ ID NO: 2 KCNTATCATQRLANFLVRSSNNLGPVLPPTNVGSNTY (KCNTATCATQLANFLVRSSNNLGPVLPPTNVGSNTY; listed as Mus musculus)	modest increase	modest, not significant effect; also recorded: no further effect	negative					
IAPP oligomers: exogenous oligomers that human IAPP rapidly forms at 50 μM (KCNTATCATQLANFLVHSSNNFGAILSSTNVGSNTY)				induce sarcolemma thinning; also recorded: Density of thin sarcolemma patches is higher	does not reveal release of calcein; also recorded: does not induce significant calcein leak	significant structural modification of the sarcolemma		
human IAPP: human islet amyloid polypeptide, amyloidogenic, SEQ ID NO: 1 KCNTATCATQRLANFLVHSSNNFGAILSSTNVGSNTY (KCNTATCATQLANFLVHSSNNFGAILSSTNVGSNTY; listed as Homo sapiens)	modest increase	marked rise	positive				significantly increased	induces hyperthrophy
